ChEMBL document CHEMBL1201862, “PubChem BioAssay data set” (2004)
Blank lines part the entries; values can stand above or below the compound they belong to. Active and inactive are the calls of the source.

Experiments:
Format in all cases: functional
[1] = molecular target: T1, G-protein coupled receptor 55 (Homo sapiens, UniProt Q9Y2T6); assay: inhibition of LPI-stimulated GPR55 beta-arrestin translocation – imaging, U2OS, beta-arrestin-GFP, LPI agonist, primary screen (AID 2013);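 also: antagonist potency measured as reduced agonist-driven arrestin aggregation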
T1 sequence (Q9Y2T6 whole entry): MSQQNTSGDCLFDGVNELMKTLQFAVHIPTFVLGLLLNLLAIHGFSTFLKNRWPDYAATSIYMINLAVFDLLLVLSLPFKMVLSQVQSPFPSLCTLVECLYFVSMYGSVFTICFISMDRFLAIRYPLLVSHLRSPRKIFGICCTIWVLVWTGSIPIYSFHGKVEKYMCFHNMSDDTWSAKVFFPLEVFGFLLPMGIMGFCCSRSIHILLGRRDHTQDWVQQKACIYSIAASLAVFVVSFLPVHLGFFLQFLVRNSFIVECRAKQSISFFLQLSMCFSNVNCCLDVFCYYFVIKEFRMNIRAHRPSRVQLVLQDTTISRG

Cannabinoid receptor 1 [2] = molecular target: T2, Cannabinoid receptor 1 (Homo sapiens, UniProt P21554); assay: SAR analysis of antagonists of the Cannabinoid Receptor 1 using an Image-Based Assay - Set 3. [Related pubchem assays (depositor defined):AID1961, AID1965]
T2 sequence (P21554 whole entry): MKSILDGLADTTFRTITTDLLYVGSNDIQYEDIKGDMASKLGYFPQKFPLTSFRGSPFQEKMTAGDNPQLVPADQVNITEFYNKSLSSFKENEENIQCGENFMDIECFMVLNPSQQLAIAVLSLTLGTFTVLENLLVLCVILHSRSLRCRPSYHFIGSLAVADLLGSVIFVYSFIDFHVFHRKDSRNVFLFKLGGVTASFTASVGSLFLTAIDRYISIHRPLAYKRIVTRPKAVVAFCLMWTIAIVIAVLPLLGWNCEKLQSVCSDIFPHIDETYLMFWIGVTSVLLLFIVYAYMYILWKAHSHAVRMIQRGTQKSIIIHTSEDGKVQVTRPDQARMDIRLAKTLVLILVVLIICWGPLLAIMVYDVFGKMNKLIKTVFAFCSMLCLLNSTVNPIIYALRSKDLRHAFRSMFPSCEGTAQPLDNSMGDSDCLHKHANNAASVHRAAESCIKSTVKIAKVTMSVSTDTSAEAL

Cannabinoid receptor 2 [3] = molecular target: T3, Cannabinoid receptor 2 (Homo sapiens, UniProt P34972); assay: SAR analysis of agonists of the Cannabinoid Receptor 2 using an Image-Based Assay - Set 2. [Related pubchem assays (depositor defined):AID1961, AID1965]
T3 sequence (P34972 whole entry): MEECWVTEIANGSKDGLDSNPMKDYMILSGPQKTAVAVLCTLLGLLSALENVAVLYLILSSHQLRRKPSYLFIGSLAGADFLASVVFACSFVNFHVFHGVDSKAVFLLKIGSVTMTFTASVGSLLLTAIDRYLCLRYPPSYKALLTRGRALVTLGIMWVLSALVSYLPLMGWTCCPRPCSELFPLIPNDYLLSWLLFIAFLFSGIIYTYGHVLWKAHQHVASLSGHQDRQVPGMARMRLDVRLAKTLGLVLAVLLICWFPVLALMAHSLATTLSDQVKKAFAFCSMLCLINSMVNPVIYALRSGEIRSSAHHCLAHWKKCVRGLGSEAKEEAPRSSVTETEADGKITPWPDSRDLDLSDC

[4] = molecular target: T4, G-protein coupled receptor 35 (Homo sapiens, UniProt Q9HC97); assay: SAR analysis of Agonists of the GPR35 Receptor using an Image-Based Assay - Set 3. [Related pubchem assays (depositor defined):AID1961, AID1965]
T4 sequence (Q9HC97 whole entry): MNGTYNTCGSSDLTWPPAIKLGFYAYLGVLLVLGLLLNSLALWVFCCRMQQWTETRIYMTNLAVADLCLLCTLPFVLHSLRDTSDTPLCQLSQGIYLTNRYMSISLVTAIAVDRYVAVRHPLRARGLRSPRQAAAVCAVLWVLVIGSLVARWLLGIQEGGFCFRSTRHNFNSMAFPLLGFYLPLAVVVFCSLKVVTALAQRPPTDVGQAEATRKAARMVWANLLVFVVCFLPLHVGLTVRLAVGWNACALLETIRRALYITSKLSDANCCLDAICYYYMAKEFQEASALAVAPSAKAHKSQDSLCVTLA

Cannabinoid receptor 2 [5] = molecular target: T3, Cannabinoid receptor 2; assay: SAR analysis of antagonists of the Cannabinoid Receptor 2 using an Image-Based Assay - Set 2. [Related pubchem assays (depositor defined):AID1961, AID1965]
[6] = molecular target: T4, G-protein coupled receptor 35; assay: SAR analysis of Antagonists of the GPR35 Receptor using an Image-Based Assay - Set 4. [Related pubchem assays (depositor defined):[…]]
Cannabinoid receptor 1 [7] = molecular target: T2, Cannabinoid receptor 1; assay: SAR analysis of agonists of the Cannabinoid Receptor 1 using an Image-Based Assay - Set 3. [Related pubchem assays (depositor defined):AID1961, AID1965]
[8] = molecular target: T1, G-protein coupled receptor 55; assay: SAR analysis of selective Agonists of GPR55 using an Image-Based Assay - Set 2. [Related pubchem assays (depositor defined):AID1961, AID1965]
[9] = molecular target: T1, G-protein coupled receptor 55; assay: selective activators of receptor GPR55 – imaging, U2OS cells, beta-arrestin-GFP redistribution, primary screen (AID 1961)
Coagulation factor XII = molecular target: T5, Coagulation factor XII (Homo sapiens, UniProt P00748); assay: Factor XIIa Dose Response Confirmation from Single Well HTS. [Related pubchem assays (depositor defined):AID701]
T5 sequence (P00748 whole entry): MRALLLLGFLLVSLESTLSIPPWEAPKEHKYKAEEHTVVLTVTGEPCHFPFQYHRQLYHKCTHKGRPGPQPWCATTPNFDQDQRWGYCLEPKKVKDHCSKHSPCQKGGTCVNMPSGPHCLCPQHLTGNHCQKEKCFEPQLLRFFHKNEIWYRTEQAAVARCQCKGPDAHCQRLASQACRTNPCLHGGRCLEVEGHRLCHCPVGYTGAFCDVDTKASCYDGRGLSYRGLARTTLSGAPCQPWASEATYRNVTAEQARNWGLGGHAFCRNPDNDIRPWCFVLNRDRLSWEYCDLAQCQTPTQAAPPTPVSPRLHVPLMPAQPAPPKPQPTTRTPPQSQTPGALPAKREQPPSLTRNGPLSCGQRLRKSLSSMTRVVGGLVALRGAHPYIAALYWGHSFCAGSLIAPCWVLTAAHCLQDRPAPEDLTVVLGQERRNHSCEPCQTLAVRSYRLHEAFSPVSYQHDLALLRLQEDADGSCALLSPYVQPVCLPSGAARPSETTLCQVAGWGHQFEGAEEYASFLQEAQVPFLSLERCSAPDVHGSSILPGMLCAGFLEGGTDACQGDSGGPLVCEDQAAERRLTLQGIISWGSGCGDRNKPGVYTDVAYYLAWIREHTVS

- IC50 [1]: 1.12 µM (active)
SMILES: N#C/C(=C/c1c[nH]nc1-c1cccc(Br)c1)C(=O)O

- IC50 (Cannabinoid receptor 1 [2]): > 32 µM (inactive)
- EC50 (Cannabinoid receptor 2 [3]): > 32 µM (inactive)
- EC50 [4]: > 32 µM (inactive)
- IC50 (Cannabinoid receptor 2 [5]): > 32 µM (inactive)
- IC50 [6]: > 32 µM (inactive)
- EC50 (Cannabinoid receptor 1 [7]): > 32 µM (inactive)
- EC50 [8]: > 32 µM (inactive)
SMILES: CC(C)Oc1ccc(S(=O)(=O)N2CCOCC2)cc1NC(=O)c1cc2ccccc2s1

- EC50 [9]: 5.48 µM (active)
SMILES: COc1ccccc1OCC(=O)/C=C1/N(C)c2ccccc2C1(C)C

- IC50 (Coagulation factor XII): > 50 µM (inactive)
SMILES: Cc1ccc(NC(=O)C2(S(=O)(=O)c3ccc(C)cc3)CC2)cc1
